Source: paper PMC10958501, “4-Oxypiperidine Ethers as Multiple Targeting Ligands at Histamine H3 Receptors and Cholinesterases” (ACS Chemical Neuroscience, 2024)
Read-outs that look alike come from different tables or passages of the source.

What was measured:
H3R = system: H3R; set-up: method as in PMID 29671795, PMID 23957330; details: cited from earlier work
[1] = set-up: method as in PMID 29671795; details: in vivo; cited from earlier work
eqBuChE = eqBuChE (Equus caballus, UniProt P81908); assay: biochemical; details: for inhibition at 10 µM: read-out: eqBuChE % inh. (10 μM) ± SD; for IC50: read-out: eqBuChE IC50 [μM] ± sem
eqBuChE, sequence (P81908 whole entry): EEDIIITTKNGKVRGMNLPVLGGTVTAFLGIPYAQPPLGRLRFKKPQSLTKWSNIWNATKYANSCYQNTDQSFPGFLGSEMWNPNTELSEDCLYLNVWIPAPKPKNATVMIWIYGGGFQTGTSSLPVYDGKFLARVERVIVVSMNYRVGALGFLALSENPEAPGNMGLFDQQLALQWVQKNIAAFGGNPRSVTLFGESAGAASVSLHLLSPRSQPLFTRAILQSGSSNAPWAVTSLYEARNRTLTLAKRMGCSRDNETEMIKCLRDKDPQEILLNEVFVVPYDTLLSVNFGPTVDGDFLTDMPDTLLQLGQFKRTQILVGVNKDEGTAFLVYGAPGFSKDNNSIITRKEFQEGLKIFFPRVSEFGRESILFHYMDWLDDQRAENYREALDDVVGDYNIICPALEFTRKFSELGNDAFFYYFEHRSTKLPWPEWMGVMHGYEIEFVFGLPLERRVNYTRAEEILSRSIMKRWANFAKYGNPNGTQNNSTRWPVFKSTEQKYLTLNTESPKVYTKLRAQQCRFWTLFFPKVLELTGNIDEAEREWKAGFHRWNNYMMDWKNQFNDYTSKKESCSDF

gpH3R = molecular target: T1, gpH3R (Cavia porcellus, UniProt Q9JI35); assay: Ex vivo gpH3R screening on isolated guinea pig ileum electrically stimulated to contraction
T1 construct: isolated guinea pig ileum electrically stimulated to contraction; from tissue; host or cells: distal ileum of male guinea pigs
T1 sequence (Q9JI35 whole entry): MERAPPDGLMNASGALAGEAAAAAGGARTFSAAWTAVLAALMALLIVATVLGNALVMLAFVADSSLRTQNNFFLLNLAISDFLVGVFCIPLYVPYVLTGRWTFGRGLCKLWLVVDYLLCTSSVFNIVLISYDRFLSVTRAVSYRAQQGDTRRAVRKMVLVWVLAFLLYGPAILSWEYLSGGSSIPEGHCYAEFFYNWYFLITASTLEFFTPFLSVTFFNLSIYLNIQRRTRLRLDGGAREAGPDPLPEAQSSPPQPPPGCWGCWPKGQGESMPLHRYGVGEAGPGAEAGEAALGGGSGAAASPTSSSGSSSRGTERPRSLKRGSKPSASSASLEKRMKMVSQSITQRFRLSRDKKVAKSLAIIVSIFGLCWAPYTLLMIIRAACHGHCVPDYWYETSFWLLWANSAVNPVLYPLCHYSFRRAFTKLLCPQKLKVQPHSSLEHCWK
Experimental: All newly synthesized compounds were evaluated ex vivo as H3R antagonists/inverse agonists on guinea pig ileum (gpH3R) stimulated electrically for contraction.[47]
The compounds were tested against H3R by an ex vivo assay using isolated guinea pig ileum electrically stimulated to contraction, according to Vollinga et al.[47] The pA2-values were calculated according to Arunlakshana and Schild.[59] The radioligand-displacement assay was performed in membrane fractions of HEK-293 cells stably expressing hH3R. Cell cultivation and membrane preparation were performed according to Kottke et al.[48] The Ki values were calculated from the IC50 values using the Cheng–Prusoff equation.[60] The statistical calculations were performed on −log(Ki). […] The inhibitory activities toward AChE and BuChE of novel ADS compounds were assessed in a spectrophotometric Ellman’s assay using electric eel AChE (eeAChE) and equine BuChE (eqBuChE).[57] Intracellular cAMP accumulation was measured with a homogeneous TR-FRET immunoassay using the LANCE Ultra cAMP kit (PerkinElmer) and HEK293 cells stably expressing the human histamine H3 receptor.[61] A more detailed description of the biological methods is presented in the Supporting Information.
3. Pharmacological assay results.
3.1. Ex vivo assay for histamine H 3R receptor antagonists on guinea pig ileum.
Male guinea pigs, weighing 300-400 g were euthanized by a blow to the neck. Following this, a 20-30 cm length of the distal ileum, apart from the terminal 5 cm was rapidly removed and […]
USA) (1·10 -6 mol/L). The intraluminal content was rinsed and the isolated intestine was cut into 1.5-2 cm segments. The preparations were mounted between two platinum electrodes […]
and indomethacin (3·10 -7 mol/L).
CO2 mixture and maintained at 37 °C under a constant load of 1.0 g (Hugo Sachs Hebel-Messvorsatz (Tl-2)/HF-modem; Hugo Sachs Elektronik, Hugstetten, Germany) connected to a pen recorder (Kipp & Zonen BD41, Delft, Holland). During an equilibration period of 60 min, the Krebs buffer was changed every 10 min. The preparations were then continuously stimulated at 15-20 V at a frequency of 0.1 Hz for a duration of 0.5 ms, with rectangular-wave electrical pulses (Grass Stimulator S-88; Grass Instruments Co., Quincy, Massachusetts, […]
USA). […] Five minutes before (R)-(−)-α- […]
methylhistamine (RAMH) (Toronto Research Chemicals Inc., North York, Canada), administration, pyrilamine (Sigma-Aldrich, St. Louis, MO, USA) (1·10-5 mol/L concentration in organ bath) was added. The first cumulative concentration-response curve was determined […]
second to fourth curve was measured against increasing antagonist concentration (incubation time 20 min). The pA2-values were calculated according to Arunlakshana and Schild 5.
Statistical analysis was carried out with the Student’s t-test. In all tests, a p<0.05 was […]
considered statistically significant. The pA2 values were compared with the affinity of thioperamide (Sigma-Aldrich, St. Louis, MO, USA). […]

eeAChE = molecular target: T2, eeAChE (Electrophorus electricus, UniProt O42275); assay: biochemical; details: for inhibition at 10 µM: read-out: eeAChE % inh. (10μM) ± SD; for IC50: read-out: eeAChE IC50 (μM) ± sem
T2 construct: purchased Sigma–Aldrich (Steinheim, Germany)
T2 sequence (O42275 24-633): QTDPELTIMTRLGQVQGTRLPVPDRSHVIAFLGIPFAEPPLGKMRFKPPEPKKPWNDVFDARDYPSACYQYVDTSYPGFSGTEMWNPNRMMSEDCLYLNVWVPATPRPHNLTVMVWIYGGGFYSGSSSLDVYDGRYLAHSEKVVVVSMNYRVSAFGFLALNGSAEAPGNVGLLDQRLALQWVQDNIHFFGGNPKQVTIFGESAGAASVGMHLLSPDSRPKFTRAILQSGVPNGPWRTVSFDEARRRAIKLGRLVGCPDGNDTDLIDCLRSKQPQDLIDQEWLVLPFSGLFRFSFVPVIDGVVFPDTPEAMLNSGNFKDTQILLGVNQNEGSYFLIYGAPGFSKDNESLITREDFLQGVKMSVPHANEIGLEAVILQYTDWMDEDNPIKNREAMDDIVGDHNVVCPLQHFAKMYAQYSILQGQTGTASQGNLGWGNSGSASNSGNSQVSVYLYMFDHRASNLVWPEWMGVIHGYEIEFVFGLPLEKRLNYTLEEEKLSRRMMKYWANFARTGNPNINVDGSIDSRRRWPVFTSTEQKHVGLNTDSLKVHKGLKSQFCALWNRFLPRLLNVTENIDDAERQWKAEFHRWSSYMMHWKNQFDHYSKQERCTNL

hH3R [2] = molecular target: T3, hH3R (Homo sapiens, UniProt Q9Y5N1); assay: hH3R radioligand displacement assay in membrane fractions of HEK-293 cells; type: binding; details: [3H]Nα-methylhistamine displacement, HEK-293 membranes; 95% CI in brackets
T3 construct: expressed in transfected cells; membrane fractions
T3 sequence (Q9Y5N1 whole entry): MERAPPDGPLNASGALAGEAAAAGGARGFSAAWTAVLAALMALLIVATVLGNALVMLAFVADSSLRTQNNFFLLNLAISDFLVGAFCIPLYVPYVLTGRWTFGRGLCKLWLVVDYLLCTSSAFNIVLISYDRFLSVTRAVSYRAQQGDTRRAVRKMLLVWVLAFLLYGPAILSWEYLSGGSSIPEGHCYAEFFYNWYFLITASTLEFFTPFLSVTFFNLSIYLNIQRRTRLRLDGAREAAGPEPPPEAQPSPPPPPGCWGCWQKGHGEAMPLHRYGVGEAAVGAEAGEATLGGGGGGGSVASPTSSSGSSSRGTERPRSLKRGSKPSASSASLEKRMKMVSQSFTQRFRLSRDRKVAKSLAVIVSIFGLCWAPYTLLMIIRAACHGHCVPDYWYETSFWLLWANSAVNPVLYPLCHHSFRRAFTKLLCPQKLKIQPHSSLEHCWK
Experimental: The compounds were tested against H3R by an ex vivo assay using isolated guinea pig ileum electrically stimulated to contraction, according to Vollinga et al.[47] The pA2-values were calculated according to Arunlakshana and Schild.[59] The radioligand-displacement assay was performed in membrane fractions of HEK-293 cells stably expressing hH3R. Cell cultivation and membrane preparation were performed according to Kottke et al.[48] The Ki values were calculated from the IC50 values using the Cheng–Prusoff equation.[60] The statistical calculations were performed on −log(Ki). The mean values and 95% confidence intervals were transformed to nanomolar concentrations. The inhibitory activities toward AChE and BuChE of novel ADS compounds were assessed in a spectrophotometric Ellman’s assay using electric eel AChE (eeAChE) and equine BuChE (eqBuChE).[57] Intracellular cAMP accumulation was measured with a homogeneous TR-FRET immunoassay using the LANCE Ultra cAMP kit (PerkinElmer) and HEK293 cells stably expressing the human histamine H3 receptor.[61] A more detailed description of the biological methods is presented in the Supporting Information. […]
considered statistically significant. The pA2 values were compared with the affinity of thioperamide (Sigma-Aldrich, St. Louis, MO, USA).
3.2. hH 3R radioligand displacement binding assay.
The radioligand displacement binding assay was performed in membrane fractions of HEK-293 cells stably expressing hH3R. Cell cultivation and membrane preparation was performed according to Kottke et al 6. For the radioligand displacement assay, radioactively labeled […]
assay volume was set to 200 µL. The compounds were tested in several appropriate concentrations between 100 µM and 0.1 nM. Pipetting was partly done by Freedom Evo® (Tecan). Pitolisant was used to determine non-specific binding at a concentration of 10 µM.
The membrane fraction (20 µg/well), test compounds, and radiolabeled ligand were incubated for 90 minutes at 25 °C while shaking. The bound radioligand was separated from the free radioligand by filtration through GF/B filters pre-treated with 0.3 % (m/v) polyethyleneimine using a cell harvester. Radioactivity was determined by liquid scintillation counting using a MicroBeta® Trilux (Perkin Elmer). The data was obtained in duplicates in at least three independent experiments. Non-specific binding was subtracted from the raw data to calculate specific binding values. The evaluation was performed with GraphPad Prism 6.1 (San Diego, CA, USA) using non-linear regression (one-site competition with a logarithmic scale). The Ki values were calculated from the IC50 values using the Cheng-Prusoff equation 7. The statistical calculations were performed on –log(Ki). […]

BuChE = system: BuChE; set-up: method as in PMID 16599255; details: cited from earlier work
AChE = details: cited from earlier work
hH3R [3] = molecular target: T3, hH3R; details: cited from earlier work
[4] = isolated guinea pig ileum, against (R)-(−)-α-methylhistamine, mean of at least three experiments, read-out: gpH3R pA2 ± sem (converted)

SMILES	inhibition at 10 µM (eqBuChE)	IC50 (eqBuChE)	Kb (gpH3R)	inhibition at 10 µM (eeAChE)	other results
CCCN(C)CCCCCOC1CCN(Cc2cc3ccccc3o2)CC1 [ADS003, 5-((1-(benzofuran-2-ylmethyl)piperidin-4-yl)oxy)-N-methyl-N-propylpentan-1-amine]					pA2 (H3R): 8.47; blood–brain barrier crossing [1]: ability to cross the blood–brain barrier
CCCN(C)CCCCCOC1CCN(Cc2ccccc2)CC1 [ADS009, 5-((1-benzylpiperidin-4-yl)oxy)-N-methyl-N-propylpentan-1-amine]					pA2 (H3R): 7.79
CCCN(C)c1ccc(OC2CCN(Cc3ccccc3)CC2)cc1 [ADS021, 4-((1-Benzylpiperidin-4-yl)oxy)-N-methyl-N-propylaniline]	95.88 ± 0.2%	0.559 ± 0.125 µM	> 100 µM	33.4 ± 1.1%	
CCCN(C)Cc1ccc(COC2CCN(Cc3ccccc3)CC2)cc1 [ADS022, N-(4-(((1-Benzylpiperidin-4-yl)oxy)methyl)benzyl)-N-methylpropan-1-amine]	49.4 ± 1.9%		0.038 µM	61.6 ± 2.8%	IC50 (eeAChE): 6.89 ± 0.271 µM; Ki (hH3R [2]): 77.1 nM
CCCN(C)c1ccc(OC2CCN(Cc3cc4ccccc4o3)CC2)cc1 [ADS023, 4-((1-(Benzofuran-2-ylmethyl)piperidin-4-yl)oxy)-N-methyl-N-propylaniline]	43.2 ± 2.1%			40.3 ± 2.8%	Kb (gpH3R; [4]): > 100 µM
CCCN(C)Cc1ccc(COC2CCN(Cc3cc4ccccc4o3)CC2)cc1 [ADS024, N-(4-(((1-(Benzofuran-2-ylmethyl)piperidin-4-yl)oxy)methyl)benzyl)-N-methylpropan-1-amine]	32.2 ± 2.6%		0.0269 µM	36.2 ± 3.6%	Ki (hH3R [2]): 144 nM
CCCN(C)Cc1cccc(COC2CCN(Cc3ccccc3)CC2)c1 [ADS025, N-(3-(((1-Benzylpiperidin-4-yl)oxy)methyl)benzyl)-N-methylpropan-1-amine]	63.9 ± 1.7%	6.05 ± 0.16 µM	0.129 µM	53.7 ± 1.9%	IC50 (eeAChE): 9.94 ± 0.64 µM
CCCN(C)Cc1cccc(COC2CCN(Cc3cc4ccccc4o3)CC2)c1 [ADS026, N-(3-(((1-(Benzofuran-2-ylmethyl)piperidin-4-yl)oxy)methyl)benzyl)-N-methylpropan-1-amine]	55.9 ± 2%			5.5 ± 0.6%	Kb (gpH3R; [4]): 0.0933 µM
CCCN(C)Cc1ccccc1COC1CCN(Cc2ccccc2)CC1 [ADS027, N-(2-(((1-Benzylpiperidin-4-yl)oxy)methyl)benzyl)-N-methylpropan-1-amine]	64.6 ± 0.9%	4.31 ± 0.202 µM	0.151 µM	4.8 ± 0.3%	
CCCN(C)Cc1ccccc1COC1CCN(Cc2cc3ccccc3o2)CC1 [ADS028, N-(2-(((1-(Benzofuran-2-ylmethyl)piperidin-4-yl)oxy)methyl)benzyl)-N-methylpropan-1-amine]	79.6 ± 0.4%	2.65 ± 0.055 µM	0.126 µM	2.3 ± 0.3%	
CCCN(C)Cc1ccc(-c2ccc(COC3CCN(Cc4ccccc4)CC3)cc2)cc1 [ADS029, N-((4′-(((1-Benzylpiperidin-4-yl)oxy)methyl)-[1,1′-biphenyl]-4-yl)methyl)-N-methylpropan-1-amine]	90.8 ± 0.3%	1.4 ± 0.055 µM	0.0617 µM	69 ± 0.5%	IC50 (eeAChE): 3.71 ± 0.134 µM
CCCN(C)Cc1ccc(-c2ccc(COC3CCN(Cc4cc5ccccc5o4)CC3)cc2)cc1 [ADS030, N-((4′-(((1-(Benzofuran-2-ylmethyl)piperidin-4-yl)oxy)methyl)-[1,1′-biphenyl]-4-yl)methyl)-N-methylpropan-1-amine]	83.1 ± 0.4%	1.75 ± 0.077 µM	0.257 µM	31.2 ± 0.5%	
CCCN(C)Cc1ccc2cc(COC3CCN(Cc4cc5ccccc5o4)CC3)ccc2c1 [ADS032, N-((6-(((1-(Benzofuran-2-ylmethyl)piperidin-4-yl)oxy)methyl)naphthalen-2-yl)methyl)-N-methylpropan-1-amine]	90.3 ± 0.1%	1.64 ± 0.074 µM	0.0871 µM	28.1 ± 3.9%	Ki (hH3R [2]): 44.1 nM
c1ccc2c(NCc3ccc(CCCN4CCCCC4)cc3)c3c(nc2c1)CCCC3 [III]					IC50 (BuChE): 0.0088 µM; IC50 (AChE): 0.0026 µM; Ki (hH3R [3]): 0.0003 µM
c1cc(-c2ccc(CN3CCCCC3)cc2)ccc1CCN1CCCCC1 [I]					IC50 (AChE): 1.1 µM
S=C(NC1CCCCC1)N1CCC(c2cnc[nH]2)CC1 [Thioperamide]					pA2 (H3R): 8.67
